Consider six compounds from patent EP1007514B1, “HETEROCYCLIC KETONES AS NPY Y5 ANTAGONISTS” (BAYER CORPORATION, priority 1997, dated 1999).

The structures appear in SMILES notation.

Assay [1] concerns the target T1, human NPY Y5 receptor subtype (Homo sapiens, UniProt Q15761).
T1 sequence (Q15761 1-445): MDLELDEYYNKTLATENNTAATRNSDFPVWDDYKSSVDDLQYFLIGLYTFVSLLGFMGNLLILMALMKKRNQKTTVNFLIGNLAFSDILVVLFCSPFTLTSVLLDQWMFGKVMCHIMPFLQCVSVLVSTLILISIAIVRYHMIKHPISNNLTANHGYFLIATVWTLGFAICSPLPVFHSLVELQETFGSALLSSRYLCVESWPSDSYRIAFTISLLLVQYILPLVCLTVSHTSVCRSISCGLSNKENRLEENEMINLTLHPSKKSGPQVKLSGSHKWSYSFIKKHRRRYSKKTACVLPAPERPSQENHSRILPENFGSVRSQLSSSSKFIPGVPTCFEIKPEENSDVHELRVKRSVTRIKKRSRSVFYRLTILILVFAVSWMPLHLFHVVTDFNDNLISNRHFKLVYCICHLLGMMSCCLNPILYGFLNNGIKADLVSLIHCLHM
Nature of the assay: NPY Y5 receptor membrane binding, [125I]PYY (human). The conditions noted are these: membrane protein; 75-100 pM [125I]PYY; 50% inhibition of specific binding; read-out: IC50 (µM) NPY receptor indicated hY5. The method, then:
(§1) Assays to determine human and rat NPY Y5 receptor subtype binding affinity are performed on GF/C Millipore 96-well plates pretreated with 0.02% polyethylenimine. The binding buffer is 25 mM Tris, 120 mM NaCl, 5 mM KCl, 1.2 mM KH2PO4, 2.5 mM CaCl2, 1.2 mM MgSO4, 0.1% BSA and 0.5 mg/ml bacitracin, pH 7.4. Samples consist of membrane protein, 75-100 pM [^125I] PYY (porcine, NEN-DuPont) and test compounds diluted in binding buffer. Nonspecific binding is defined by 1 µM PYY. After a 2 hour incubation at room temperature with constant mixing, the samples are aspirated on a vacuum manifold and rinsed with ice-cold binding buffer. The amount of radioactivity in each well is quantitated with either gamma counting or liquid scintillation. IC50 values, which correspond to 50% inhibition of specific binding, are determined with non-linear regression analysis.

Assay [2] concerns the target T2, rat NPY Y5 receptor subtype (Rattus norvegicus, UniProt Q63634).
T2 sequence (Q63634 1-445): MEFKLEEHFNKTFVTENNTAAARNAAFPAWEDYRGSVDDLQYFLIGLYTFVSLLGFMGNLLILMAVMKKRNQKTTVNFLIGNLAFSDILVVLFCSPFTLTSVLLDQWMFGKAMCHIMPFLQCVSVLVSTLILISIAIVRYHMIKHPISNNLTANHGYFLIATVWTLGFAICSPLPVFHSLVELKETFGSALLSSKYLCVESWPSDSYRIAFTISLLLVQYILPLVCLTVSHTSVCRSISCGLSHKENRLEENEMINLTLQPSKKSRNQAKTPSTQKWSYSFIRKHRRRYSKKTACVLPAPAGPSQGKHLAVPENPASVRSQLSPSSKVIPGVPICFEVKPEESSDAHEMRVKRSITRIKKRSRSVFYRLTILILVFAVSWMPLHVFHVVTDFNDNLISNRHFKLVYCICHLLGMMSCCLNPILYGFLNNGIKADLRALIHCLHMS
The assay can be described thus: NPY Y5 receptor membrane binding, [125I]PYY (rat). The conditions noted are these: membrane protein; 75-100 pM [125I]PYY; 50% inhibition of specific binding; read-out: IC50 (µM) NPY receptor indicated rY5. The method, then: as §1

The target of a further assay is T3, rat NPY Y5 receptor (Rattus norvegicus, UniProt Q63634).
T3 construct: expressed in transfected cells
T3 sequence (Q63634 1-445): T2 sequence (Q63634 1-445)
The assay can be described thus: In vitro functional assay, forskolin-stimulated cAMP in cells stably expressing the receptor. Type of assay: cell-based. The conditions noted are these: percentage of forskolin-stimulated adenylate cyclase; 1 µM forskolin; test compound 10 µM; 80 - 120% indicates no significant agonistic effect. The method, then: An in vitro functional assay to determine rat NPY Y5 receptor subtype binding affinity is performed by resuspending cells stably expressing the rat NPY Y5 receptor in serum-free DMEM containing 10 mM HEPES (pH 7.4) and 1 mM isobutylmethylxanthine (IBMX). One µM forskolin and test compounds at a final concentration of 10 µM are then added to the cells. After a 20 minute incubation of the samples at 37°C, the assay is stopped by placing the samples in boiling water for 3 minutes. The cAMP produced in each sample is quantitated with a radioimmunoassay kit (NEN DuPont). Data are expressed as a percentage of forskolin-stimulated adenylate cyclase. Data between 80 - 120% indicates no significant agonistic effect.

For orientation: IC50 means the concentration that inhibits the measured activity by half.

Take `Cc1ccc(S(=O)(=O)CC(C(=O)c2nc3ccccc3s2)c2ccccc2)cc1` (stereo not shown) [Compound 6, 1-Benzothizol-2-yl-2-phenyl-3-(toluene-4-sulfonyl)-propan-1-one]: the IC50 in assay [1] was 8.8 µM; in assay [2], 10 µM. For the same compound, at rat NPY Y5 receptor, the “% forskolin at 10 µM” value worked out at 89%.
Consider `Cc1ccc(SCC(C(=O)c2ncc[nH]2)c2ccccc2)cc1` (stereo not shown) [Compound 2, (1H-Imidazol-2-yl)-2-phenyl-3-p-tolylsulfanyl-propan-1-one], for which the values for the IC50 in assay [1] and in assay [2] were 0.83 µM and 0.46 µM, respectively.
Take `COc1ccc2[nH]c(C(=O)C(CS(=O)(=O)c3ccc(C)cc3)c3ccccc3)nc2c1` (stereo not shown) [Compound 14, 1-(5-Methoxy-1H-benzoimidazol-2-yl)-2-phenyl-3-(toluene-4-sulfonyl)-propan-1-one]: the IC50 in assay [1] is 0.08 µM. The “% forskolin at 10 µM” value on rat NPY Y5 receptor is given as 99%.
For `O=C(c1nc2ccccc2[nH]1)C(CS(=O)(=O)c1ccccc1)c1ccccc1` (stereo not shown) [Compound 8, 3-Benzenesulfonyl-1-(1H-benzoimidazol-2-yl)-2-phenyl-propan-1-one], the IC50 in assay [1] was 0.022 µM; in assay [2], 0.011 µM. Also, at rat NPY Y5 receptor, the “% forskolin at 10 µM” value stood at 105%.
As to `Cc1ccc(S(=O)(=O)CC(C(=O)c2nc3cc(C)c(C)cc3[nH]2)c2ccccc2)cc1` (stereo not shown) [Compound 7, (5,6-Dimethyl-1H-benzoimidazol-2-yl)-2-phenyl-3-(toluene-4-sulfonyl)-propan-1-one], the values for the IC50 in assay [1] and in assay [2] were 0.06 µM and 0.0526 µM, respectively. Moreover, the “% forskolin at 10 µM” value on rat NPY Y5 receptor is listed as 122%.
`COc1ccc(S(=O)(=O)CC(C(=O)c2nc3ccccc3[nH]2)c2ccccc2)cc1` (stereo not shown) [Compound 10, 1-(1H-Benzoimidazol-2-yl)-3-(4-methoxy-benzenesulfonyl)-2-phenyl-propan-1-one]: the 50% inhibitory concentration (IC50) turned out to be 0.011 µM in assay [1] and 0.0067 µM in assay [2]. Moreover, the “% forskolin at 10 µM” value at rat NPY Y5 receptor amounted to 106%.
